Reference: patent publication EP4810508A1, “ARABINOSE DERIVATIVE COMPOUND, AND COMPOSITION COMPRISING SAME FOR PREVENTING OR TREATING DEGENERATIVE BRAIN DISEASES” (Digmbio. Inc., priority 2023, dated 2025)
Read-outs that look alike come from different tables or passages of the source.

How the values were obtained:
[1] = tested on: male ICR mice; assay: Scopolamine-induced cognitive impairment model: Y-maze test; type: in vivo; conditions: for in vivo Y-maze (%): spontaneous alternation; for percent recovery of cognitive function (Y-maze) at 50 mg/kg: Mus musculus, po, 168 h
Excerpt: (§1) A memory loss rodent animal model induced by scopolamine intraperitoneal administration is used, and an evaluation method for memory uses a Y-maze test and a passive avoidance test (PAT). Scopolamine is a representative experimental model showing an impairment of cognitive function similar to AD patients by blocking neurotransmitters when administered to an animal as an antagonist of a muscarinic acetylcholine receptor, and as a cognitive function evaluation technique, a Y-maze test and a passive avoidance experiment, which are general and representative methods, were used, and in order to objectify the efficacy levels of the compounds, a group administered with donepezil (Aricept, Eisa) as a positive control material was separately provided to compare the efficacy levels of the compounds.
(§2) In order to evaluate cognitive function, 5-week-old male ICR mice were used, the compounds to be evaluated were prepared at a dose of 50 mg/kg/ml and repeatedly orally administered at a predetermined time for 7 days, and the positive control material was carried out at 5 mg/kg/ml. After the last administration, after 30 minutes of intraperitoneal administration of 1 mg/kg/2 ml of scopolamine, a Y-maze test and a passive avoidance test, which are cognitive function evaluations, were performed.
The Y-maze test is a method for evaluating the ability to sequentially act as an experiment for measuring short-term memory. The measurement equipment is composed of three branches, each branch has a length of 42 cm, a width of 3 cm, and a height of 12 cm, and an angle at which three branches are folded is 120°. Experimental animals are put into each branch for 8 minutes, and the number of times of entering the branches to the tail of the experimental animal and the case of being sequentially received in each branch are scored (actual alternation). The alternation behavior is defined as entering not to overlap all three, and is calculated by the following equation. [formula]

[2] = tested on: male ICR mice; assay: Scopolamine-induced cognitive impairment model: passive avoidance test (PAT); type: in vivo; conditions: for cognitive function recovery compared to normal animals, passive avoidance test (effect %): compounds 50 mg/kg, orally for 7 days, scopolamine 1 mg/kg intraperitoneal; for in vivo PAT: time staying in bright room (step-through latency); for percent recovery of memory in passive avoidance test (normal group = 100, scopolamine control = 0) at 50 mg/kg: Mus musculus, po, 168 h, read-out: in vivo(effect) PAT (%)
Excerpt: as §1, §2
In addition, the passive avoidance test was conducted using an avoidance learning box (Jeondo B&P, Korea, Seoul), and the avoidance learning box is divided into a dark room and a bright room, and when a laboratory animal is put into a bright room, the subject goes beyond the dark room. At the moment, an electric shock of 0.5 mA is applied for 5 seconds, and when the next day experimental animal is put back into a bright room, an electric shock in a dark room is memorized and stay in a bright room. In this case, a step-through latency is measured to evaluate memory. The efficacy of the compounds of the present invention against the normal group and the control group in the Y-maze test and the passive avoidance test was described in the following Table 3 (Scopolamine-induced cognitive impairment model result).

[3] = tested on: HRE/Luc/HEK293 cells; assay: HRE (Hypoxia Response Element) luciferase assay; type: cell-based, human; conditions: for fold induction at 10 µM / fold induction at 100 µM: Homo sapiens; for HRE assay: increase in HRE expression levels by the test substance relative to the vehicle in HRE/Luc/HEK293 cells; for HRE expression: low concentration of 1 µM
Procedure, shortened: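 HRE-luciferase HEK293 cells in MEM/10% FBS pretreated with compound 6 h, then held under hypoxia (0.1% O2) 18 h; luminescence read after lysis. Scored as fold increase over vehicle, with twofold threshold at 100, 10 or 1 µM.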

[4] = effect compared to normal group (100) and control group (0), compounds 50 mg/kg oral for 7 days, donepezil 5 mg/kg (avg.)
[5] = range over experiment sets, donepezil 5 mg/kg oral for 7 days, scopolamine 1 mg/kg i.p.
[6] = range over experiment sets, effect compared to normal and control group, donepezil 5 mg/kg
[7] = scopolamine 1 mg/kg i.p., compounds 50 mg/kg oral for 7 days, donepezil 5 mg/kg (avg.)
[8] = HEK293, fold increase of HRE expression, hypoxic conditions (O2 0.1%) 18 hours, Table 2, read-out: HRE-increasing 10uM
[9] = HEK293, fold increase of HRE expression, hypoxic conditions (O2 0.1%) 18 hours, Table 2, read-out: HRE-increasing 100uM
[10] = read-out: in vivo(effect) Y-maze (%)
[11] = read-out: cognitive function recovery compared to normal animals, Y-maze experiment (effect %)
[12] = HEK293, 18 h, Table 2 (Examples 75-109, 114), read-out: HRE-inceasing 10uM
[13] = HEK293, 18 h, Table 2 (Examples 75-109, 114), read-out: HRE-inceasing 100uM

| SMILES | in vivo Y-maze (%) [1, 7] [%] | in vivo PAT [2, 7] [s] | fold induction at 10 µM [3, 8] | fold induction at 100 µM [3, 9] | percent recovery of cognitive function (Y-maze) at 50 mg/kg [1, 10] [%] | percent recovery of memory in passive avoidance test (normal group = 100, scopolamine control = 0) at 50 mg/kg [2] [%] | percent recovery of cognitive function (Y-maze) at 50 mg/kg [1, 11] [%] | also measured |
| --- | --- | --- | --- | --- | --- | --- | --- | --- |
| COc1cc2c(cc1OC)C(=O)C(CC1CCN(Cc3ccccc3)CC1)C2 (stereo not drawn) [donepezil, reference compound] | 67 | 219 | – | – | – | – | – | cognitive function recovery compared to normal animals, Y-maze experiment (effect %) ([1]; compounds 50 mg/kg, donepezil 5 mg/kg, orally for 7 days, scopolamine 1 mg/kg intraperitoneal): 35%; in vivo(effect) Y-maze (%) [1, 4]: 72%; in vivo Y-maze (%), range [1, 5]: 56-74%; in vivo(effect) Y-maze (%), range [1, 6]: 35-111%; cognitive function recovery compared to normal animals, passive avoidance test (effect %) ([2]; donepezil 5 mg/kg): 94%; in vivo(effect) PAT (%) [2, 4]: 82%; in vivo PAT (sec), range [2, 5]: 173~251 sec; in vivo(effect) PAT (%), range [2, 6]: 59-95% |
| O[C@@H]1[C@@H](O)[C@@H](Oc2ccc(Cc3ccc(Oc4ccccc4)cc3)cc2)OC[C@@H]1O [Example 9, (2R,3R,4S,5S)-2-(4-(4-phenoxybenzyl)phenoxy) tetrahydro-2H-pyran-3,4,5-triol] | 57 | 127 | 1.2 | < 1 | 9 | 32 | – | HRE assay [3]: • |
| O[C@@H]1[C@@H](O)[C@@H](Oc2ccc(Cc3ccsc3)cc2)OC[C@@H]1O [Example 23, (2R,3R,4S,5S)-2-(4-(thiophen-3-ylmethyl)phenoxy)tetrahydro-2H-pyran-3,4,5-triol] | 59 | 87 | 1.6 | 2.7 | 41 | 22 | – | – |
| O[C@@H]1[C@@H](O)[C@@H](Oc2ccc(CC3CCCCC3)cc2)OC[C@@H]1O [Example 22, (2R,3R,4S,5S)-2-(4-(cyclohexylmethyl)phenoxy)tetrahydro-2H-pyran-3,4,5-triol] | 65 | 145 | 2.5 | 2.8 | 56 | 36 | ≥ 50 | – |
| COc1ccc(Cc2ccc(O[C@H]3OC[C@H](O)[C@H](O)[C@H]3O)cc2)cc1 [Example 3, (2R,3R,4S,5S)-2-(4-(4-methoxybenzyl)phenoxy)tetrahydro-2H-pyran-3,4,5-triol] | 61 | 206 | 1.5 | 3.1 | 59 | 91 | 59 | HRE assay [3]: ••; cognitive function recovery compared to normal animals, passive avoidance test (effect %) ([2]; donepezil 5 mg/kg): 91% |
| O[C@@H]1[C@@H](O)[C@@H](Oc2ccc(Cc3ccccc3)cc2)OC[C@@H]1O [Example 1, (2R,3R,4S,5S)-2-(4-benzylphenoxy)tetrahydro-2H-pyran-3,4,5-triol] | 64 | 133 | 1.2 | 2.2 | 38 | 35 | – | HRE assay [3]: •• |
| Cc1ccc(Cc2ccc(O[C@H]3OC[C@H](O)[C@H](O)[C@H]3O)cc2)cc1 [Example 2, (2R,3R,4S,5S)-2-(4-(4-methylbenzyl)phenoxy) tetrahydro-2H-pyran-3,4,5-triol] | 63 | 134 | 2.5 | 3.2 | 51 | 25 | ≥ 50 | HRE assay [3]: ••• |
| COc1cccc(Cc2ccc(O[C@H]3OC[C@H](O)[C@H](O)[C@H]3O)cc2)c1 [Example 15, (2R,3R,4S,5S)-2-(4-(3-methoxybenzyl)phenoxy)tetrahydro-2H-pyran-3,4,5-triol] | 66 | 142 | 1.1 | 2.2 | 66 | 30 | ≥ 50 | – |
| COc1ccc(Cc2cccc(O[C@H]3OC[C@H](O)[C@H](O)[C@H]3O)c2)cc1 [Example 25, (2R,3R,4S,5S)-2-(3-(4-methoxybenzyl)phenoxy)tetrahydro-2H-pyran-3,4,5-triol] | 62 | 42 | – | – | 65 | 1 | ≥ 50 | – |
| O[C@@H]1[C@@H](O)[C@H](Oc2ccc(CN3CCOCC3)cc2)OC[C@@H]1O [Example 76, (2S,3R,4S,5S)-2-(4-(morpholinomethyl)phenoxy)tetrahydro-2H-pyran-3,4,5-triol] | – | – | – | – | – | – | – | fold induction at 10 µM [3, 12]: < 1; fold induction at 100 µM [3, 13]: 1 |
| Cc1ccc2oc(-c3ccc(O[C@H]4OC[C@H](O)[C@H](O)[C@H]4O)cc3)nc2c1 [Example 109, (2R,3R,4S,5S)-2-(4-(5-methylbenzo[d]oxazol-2-yl)phenoxy)tetrahydro-2H-pyran-3,4,5-triol] | – | – | – | – | – | – | – | fold induction at 10 µM [3, 12]: 3.2; fold induction at 100 µM [3, 13]: 4.4; HRE expression [3]: more than threefold |
| CC(C)c1ccc(Oc2ccc(O[C@H]3OC[C@@H](O)[C@H](O)[C@H]3O)c(Cl)c2)cc1 [Example 67, (2R,3R,4S,5R)-2-(2-chloro-4-(4-isopropylphenoxy)henoxy)tetrahydro-2H-pyran-3,4,5-triol] | – | – | – | – | – | – | – | fold induction at 10 µM ([3]; HEK293, 18 h, Table 2 (Examples 37-74, 52), read-out: HKt-increasing 10uM): 3.5; fold induction at 100 µM ([3]; HEK293, 18 h, Table 2 (Examples 37-74, 52), read-out: HKt-increasing 100uM): 2.6; HRE expression [3]: more than threefold |
| COc1ccc(Cc2ccc(S[C@H]3OC[C@H](O)[C@H](O)[C@H]3O)cc2)cc1 [Example 29, (2R,3R,4S,5S)-2-((4-(4-methoxybenzyl)phenyl)thio) tetrahydro-2H-pyran-3,4,5-thiol] | – | – | 2.7 | 2.6 | – | – | – | – |
| COc1ccc2oc(-c3ccc(O[C@@H]4OC[C@@H](O)[C@H](O)[C@H]4O)cc3)nc2c1 [Example 94, (2S,3R,4S,5R)-2-(4-(5-methoxybenzo[d]oxazol-2-yl)phenoxy)tetrahydro-2H-pyran-3,4,5-triol] | – | – | – | – | – | – | – | fold induction at 10 µM [3, 12]: 3; fold induction at 100 µM [3, 13]: 2.2; HRE expression [3]: more than threefold |
| O[C@@H]1[C@@H](O)[C@H](Oc2ccc(CN3CCCC3)cc2)OC[C@@H]1O [Example 75, (2S,3R,4S,5S)-2-(4-(pyrrolidin-1-ylmethyl)phenoxy)tetrahydro-2H-pyran-3,4,5-triol] | – | – | – | – | – | – | – | fold induction at 10 µM [3, 12]: 1; fold induction at 100 µM [3, 13]: 1 |
